Assay results taken from patent US10004701B2, “Methods and compositions for treating infection” (UNIVERSITY OF ROCHESTER, priority 2012, dated 2018).
Counter-ions that a name gives are not always drawn. Like-named read-outs stand apart in the source and are kept apart here.

Key:
Assay in all cases: AK assay 384-well format, Prestwick library screening
P. aeruginosa = format: cell-based, Pseudomonas aeruginosa; conditions: 50 μM final drug concentration; for fold induction at 50 µM: Pseudomonas aeruginosa, 3 h
[1] = test system: S. aureus strain USA300-0114; format: cell-based, Staphylococcus aureus; conditions: 50 μM final drug concentration; for fold induction at 50 µM: Staphylococcus aureus, USA300, 3 h
E. cloacae = format: cell-based, Enterobacter cloacae; conditions: 50 μM final drug concentration; for fold induction at 50 µM: Enterobacter cloacae, 3 h
K. pneumoniae = format: cell-based, Klebsiella pneumoniae; conditions: 50 μM final drug concentration; for fold induction at 50 µM: Klebsiella pneumoniae, 3 h
E. faecium = format: cell-based, Enterococcus faecium; conditions: 50 μM final drug concentration; for fold induction at 50 µM: Enterococcus faecium, 3 h
[2] = test system: A. baumannii strain 98-37-09; format: cell-based, Acinetobacter baumannii; conditions: 50 μM final drug concentration; for fold induction at 50 µM: Acinetobacter baumannii, 983709, 3 h
E. coli = format: cell-based, Escherichia coli; conditions: 50 μM final drug concentration; for fold induction at 50 µM: Escherichia coli, 3 h
[3] = planktonic, cutoff for positive-scoring molecules 3-fold increase, read-out: AK-based Prestwick Library Screening Results, P. aeruginosa (fold increase in extracellular AK activity)
[4] = planktonic, cutoff for positive-scoring molecules 3-fold increase, read-out: AK-based Prestwick Library Screening Results, S. aureus (fold increase in extracellular AK activity)
[5] = planktonic, cutoff for positive-scoring molecules 3-fold increase, read-out: AK-based Prestwick Library Screening Results, E. cloacae (fold increase in extracellular AK activity)
[6] = planktonic, cutoff for positive-scoring molecules 3-fold increase, read-out: AK-based Prestwick Library Screening Results, K. pneumoniae (fold increase in extracellular AK activity)
[7] = planktonic, cutoff for positive-scoring molecules 3-fold increase, read-out: AK-based Prestwick Library Screening Results, E. faecium (fold increase in extracellular AK activity)
[8] = planktonic, cutoff for positive-scoring molecules 3-fold increase, read-out: AK-based Prestwick Library Screening Results, A. baumannii (fold increase in extracellular AK activity)
[9] = planktonic, cutoff for positive-scoring molecules 3-fold increase, read-out: AK-based Prestwick Library Screening Results, E. coli (fold increase in extracellular AK activity)
[10] = cutoff for positive-scoring molecules 3-fold increase

Compound `CO[C@@]1(NC(=O)C(C(=O)O)c2ccc(O)cc2)C(=O)N2C(C(=O)O)=C(CSc3nnnn3C)CO[C@@H]21` (stereo partly drawn) [Moxalactam disodium salt] has a fold induction at 50 µM (P. aeruginosa; [3]) of 0.6, a fold induction at 50 µM [1, 4] of 4.4 and a fold induction at 50 µM (E. cloacae; [5]) of 0.8. The fold induction at 50 µM (K. pneumoniae; [6]) was 3.9, the fold induction at 50 µM (E. faecium; [7]) was 1.3 and the fold induction at 50 µM [2, 8] was 0.6. The fold induction at 50 µM (E. coli; [9]) was 18.1.
Compound `CCCNC(C)(C)COC(=O)c1ccccc1` [Meprylcaine hydrochloride] has a fold induction at 50 µM (P. aeruginosa; planktonic P. aeruginosa, positive cutoff 3-fold increase, read-out: AK-based Prestwick library screening result, P. aeruginosa (fold increase in extracellular AK activity)) of 0.9, a fold induction at 50 µM ([1]; planktonic S. aureus, positive cutoff 3-fold increase, read-out: AK-based Prestwick library screening result, S. aureus (fold increase in extracellular AK activity)) of 0.6 and a fold induction at 50 µM (E. cloacae; planktonic E. cloacae, positive cutoff 3-fold increase, read-out: AK-based Prestwick library screening result, E. cloacae (fold increase in extracellular AK activity)) of 0.8. The fold induction at 50 µM (K. pneumoniae; planktonic K. pneumoniae, positive cutoff 3-fold increase, read-out: AK-based Prestwick library screening result, K. pneumoniae (fold increase in extracellular AK activity)) was 0.7, the fold induction at 50 µM (E. faecium; planktonic E. faecium, positive cutoff 3-fold increase, read-out: AK-based Prestwick library screening result, E. faecium (fold increase in extracellular AK activity)) was 0.9 and the fold induction at 50 µM ([2]; planktonic A. baumannii, positive cutoff 3-fold increase, read-out: AK-based Prestwick library screening result, A. baumannii (fold increase in extracellular AK activity)) was 0.8. It also gave a fold induction at 50 µM (E. coli; planktonic E. coli, positive cutoff 3-fold increase, read-out: AK-based Prestwick library screening result, E. coli (fold increase in extracellular AK activity)) of 0.9.
`O=C(NCNC(=O)NC1C(=O)NC(=O)N1CO)NC1C(=O)NC(=O)N1CO` (stereo not drawn) [Imidurea] showed a fold induction at 50 µM (P. aeruginosa; planktonic P. aeruginosa, […], read-out: AK-based Prestwick library screening result, P. aeruginosa (fold increase in extracellular AK activity)) of 0.8, a fold induction at 50 µM ([1]; planktonic S. aureus, […], read-out: AK-based Prestwick library screening result, S. aureus (fold increase in extracellular AK activity)) of 0.7 and a fold induction at 50 µM (E. cloacae; planktonic E. cloacae, […], read-out: AK-based Prestwick library screening result, E. cloacae (fold increase in extracellular AK activity)) of 1.2. The fold induction at 50 µM (K. pneumoniae; planktonic K. pneumoniae, […], read-out: AK-based Prestwick library screening result, K. pneumoniae (fold increase in extracellular AK activity)) was 0.7, the fold induction at 50 µM (E. faecium; planktonic E. faecium, […], read-out: AK-based Prestwick library screening result, E. faecium (fold increase in extracellular AK activity)) was 0.9 and the fold induction at 50 µM ([2]; planktonic A. baumannii, […], read-out: AK-based Prestwick library screening result, A. baumannii (fold increase in extracellular AK activity)) was 0.8. For the same compound, the fold induction at 50 µM (E. coli; planktonic E. coli, […], read-out: AK-based Prestwick library screening result, E. coli (fold increase in extracellular AK activity)) was 0.9.
`O=C(c1ccccc1)c1ccc2n1CCC2C(=O)O` (stereo not drawn) [Ketorolac tromethamine] gave a fold induction at 50 µM (P. aeruginosa; cutoff for positive-scoring molecules 3-fold increase, read-out: AK-based Prestwick Library Screening Results, P. aeruginosa (fold increase in extracellular AK activity)) of 1, a fold induction at 50 µM ([1]; cutoff for positive-scoring molecules 3-fold increase, read-out: AK-based Prestwick Library Screening Results, S. aureus (fold increase in extracellular AK activity)) of 1.1 and a fold induction at 50 µM (E. cloacae; cutoff for positive-scoring molecules 3-fold increase, read-out: AK-based Prestwick Library Screening Results, E. cloacae (fold increase in extracellular AK activity)) of 1.4. The fold induction at 50 µM (K. pneumoniae; cutoff for positive-scoring molecules 3-fold increase, read-out: AK-based Prestwick Library Screening Results, K. pneumoniae (fold increase in extracellular AK activity)) was 1, the fold induction at 50 µM (E. faecium; cutoff for positive-scoring molecules 3-fold increase, read-out: AK-based Prestwick Library Screening Results, E. faecium (fold increase in extracellular AK activity)) was 1 and the fold induction at 50 µM ([2]; cutoff for positive-scoring molecules 3-fold increase, read-out: AK-based Prestwick Library Screening Results, A. baumannii (fold increase in extracellular AK activity)) was 1. It also gave a fold induction at 50 µM (E. coli; cutoff for positive-scoring molecules 3-fold increase, read-out: AK-based Prestwick Library Screening Results, E. coli (fold increase in extracellular AK activity)) of 1.3.
With `Cc1cc(=O)oc2cc(O)ccc12` [Hymecromone] the fold induction at 50 µM (P. aeruginosa; [3]) was 1, the fold induction at 50 µM [1, 4] was 1 and the fold induction at 50 µM (E. cloacae; [5]) was 1.1. For the same compound, the fold induction at 50 µM (K. pneumoniae; [6]) was 0.7, the fold induction at 50 µM (E. faecium; [7]) was 1 and the fold induction at 50 µM [2, 8] was 0.8. It also gave a fold induction at 50 µM (E. coli; [9]) of 0.9.
`CC/C(=C(/CC)c1ccc(O)cc1)c1ccc(O)cc1` [Diethylstilbestrol] showed a fold induction at 50 µM (P. aeruginosa; [3]) of 0.8, a fold induction at 50 µM [1, 4] of 0.6 and a fold induction at 50 µM (E. cloacae; [5]) of 1.4. The fold induction at 50 µM (K. pneumoniae; [6]) was 0.7, the fold induction at 50 µM (E. faecium; [7]) was 1.1 and the fold induction at 50 µM [2, 8] was 1.8. For the same compound, the fold induction at 50 µM (E. coli; [9]) was 0.9.
`CC[C@@H](CO)NC(=O)[C@@H]1C=C2c3cccc4[nH]cc(c34)C[C@H]2N(C)C1` [Methylergometrine maleate] was tested, and the fold induction at 50 µM (P. aeruginosa; planktonic, […], read-out: AK-based Prestwick Library Screening Results, P. aeruginosa (fold increase in extracellular AK activity)) was 0.9, the fold induction at 50 µM ([1]; planktonic, […], read-out: AK-based Prestwick Library Screening Results, S. aureus (fold increase in extracellular AK activity)) was 0.8 and the fold induction at 50 µM (E. cloacae; planktonic, […], read-out: AK-based Prestwick Library Screening Results, E. cloacae (fold increase in extracellular AK activity)) was 1.6. It also gave a fold induction at 50 µM (K. pneumoniae; planktonic, […], read-out: AK-based Prestwick Library Screening Results, K. pneumoniae (fold increase in extracellular AK activity)) of 1, a fold induction at 50 µM (E. faecium; planktonic, […], read-out: AK-based Prestwick Library Screening Results, E. faecium (fold increase in extracellular AK activity)) of 0.9 and a fold induction at 50 µM ([2]; planktonic, […], read-out: AK-based Prestwick Library Screening Results, A. baumannii (fold increase in extracellular AK activity)) of 0.9. It also gave a fold induction at 50 µM (E. coli; planktonic, […], read-out: AK-based Prestwick Library Screening Results, E. coli (fold increase in extracellular AK activity)) of 1.
Work on `CCC[C@@H]1C[C@@H](C(=O)N[C@@H]([C@H]2O[C@H](SC)[C@H](O)[C@@H](O)[C@H]2O)[C@@H](C)O)N(C)C1` [Lincomycin hydrochloride] yielded a fold induction at 50 µM (P. aeruginosa; planktonic P. aeruginosa, 384-well, cutoff for positive-scoring molecules 3-fold increase, read-out: AK-based Prestwick Library Screening Results: P. aeruginosa (increase in extracellular AK activity)) of 1.2, a fold induction at 50 µM ([1]; planktonic S. aureus, 384-well, cutoff for positive-scoring molecules 3-fold increase, read-out: AK-based Prestwick Library Screening Results: S. aureus (increase in extracellular AK activity)) of 7.9 and a fold induction at 50 µM (E. cloacae; planktonic E. cloacae, 384-well, cutoff for positive-scoring molecules 3-fold increase, read-out: AK-based Prestwick Library Screening Results: E. cloacae (increase in extracellular AK activity)) of 1.3. The fold induction at 50 µM (K. pneumoniae; planktonic K. pneumoniae, 384-well, cutoff for positive-scoring molecules 3-fold increase, read-out: AK-based Prestwick Library Screening Results: K. pneumoniae (increase in extracellular AK activity)) was 0.9, the fold induction at 50 µM (E. faecium; planktonic E. faecium, 384-well, cutoff for positive-scoring molecules 3-fold increase, read-out: AK-based Prestwick Library Screening Results: E. faecium (increase in extracellular AK activity)) was 1.3 and the fold induction at 50 µM ([2]; planktonic A. baumannii, 384-well, cutoff for positive-scoring molecules 3-fold increase, read-out: AK-based Prestwick Library Screening Results: A. baumannii (increase in extracellular AK activity)) was 1.2. It also gave a fold induction at 50 µM (E. coli; planktonic E. coli, 384-well, cutoff for positive-scoring molecules 3-fold increase, read-out: AK-based Prestwick Library Screening Results: E. coli (increase in extracellular AK activity)) of 0.9.
In the case of `COc1ccc2c(c1)N(C[C@H](C)CN(C)C)c1ccccc1S2.O=C(O)/C=C\C(=O)O` [Methotrimeprazine maleat salt], the “AK-based Prestwick Library Screening Results, P. aeruginosa (fold increase in extracellular AK activity)” value (P. aeruginosa; [10]) is reported as 1.1, the “AK-based Prestwick Library Screening Results, S. aureus (fold increase in extracellular AK activity)” value [1, 10] is reported as 1.2 and the “AK-based Prestwick Library Screening Results, E. cloacae (fold increase in extracellular AK activity)” value (E. cloacae; [10]) is reported as 1.8. For the same compound, the “AK-based Prestwick Library Screening Results, K. pneumoniae (fold increase in extracellular AK activity)” value (K. pneumoniae; [10]) was 1.0, the “AK-based Prestwick Library Screening Results, E. faecium (fold increase in extracellular AK activity)” value (E. faecium; [10]) was 1.0 and the “AK-based Prestwick Library Screening Results, A. baumannii (fold increase in extracellular AK activity)” value [2, 10] was 1.1. For the same compound, the “AK-based Prestwick Library Screening Results, E. coli (fold increase in extracellular AK activity)” value (E. coli; [10]) was 1.3.
